From patent US8420696B2, “Use of low-dose ladostigil for neuroprotection” (priority 2005, dated 2013) come the findings set out here.

The test system of assay [1] is nitrotyrosine immunoreactivity in astrocytes. The assay is described as follows: Example 1: nitrotyrosine immunoreactivity in hippocampal CA1 astrocytes one week after icv STZ. The assay is classed as in vivo, Sprague-Dawley rats. Conditions: for Increase in nitrotyrosine immunoreactivity in astrocytes in three areas of the CA1 region of the hippocampus: ladostigil 1.0 mg/kg daily oral, one week before to one week after icv STZ. How it is done:
The study was performed on male Sprague-Dawley rats (Harlan, Jerusalem) weighing 320-340 g, aged 4 months, according to the guidelines of the University Committee for Institutional Animal Care and based on those of the National Institutes of Health, USA. The rats were housed for one week prior to surgery in the Animal House at an ambient temperature of 21±1° C. and a 12 hr diurnal light cycle (lights on at 0700 hr).
Male Sprague-Dawley rats (30) weighing 320-340 g, were anaesthetized by an intraperitoneal (i.p.) injection of Equithesin 0.3 ml/kg. STZ (0.5 mg) in 2 μl artificial cerebrospinal fluid (CSF) was injected into each lateral ventricle of 20 rats. The stereotaxic co-ordinates for icv injection were: 0.9 mm posterior, 1.8 mm lateral and 3.8 mm ventral from the bregma level. Control rats (10) received a bilateral injection of 2 μl artificial CSF. Half of the STZ-injected rats were given ladostigil (1 mg/kg) orally in a volume of (1 ml/kg) one week before, and for one week after icv STZ. The remainder, received 1 ml/kg water. The rats were anaesthetized with sodium pentobarbitone, perfused transcardially and the brains processed for immunocytochemistry as described below.
The brains were sectioned in a cryostat in 30 μm thick slices and stained immunochemically with the following markers: Nitrotyrosine, a marker of nitrative/oxidative stress, was stained with rabbit anti-nitrotyrosine from Upstate (Lake Placid, N.Y., USA), diluted 1:100. Glial fibrillary acidic protein (GFAP), a marker of astrocyte activation, was stained with mouse antibody, clone GA-5 from Sigma (Rehovot, Israel), diluted 1:500. […]. For rabbit antibodies, the secondary donkey anti-rabbit conjugated with horseradish peroxidase from Chemicon (Temecula, Calif., USA), was diluted 1:200. For mouse anti-GFAP, the secondary goat anti mouse conjugated with horseradish peroxidase from Sigma (Rehovot, Israel), was diluted 1:100. Colour development was obtained by reaction with diaminobenzidine and hydrogen peroxide as described in Shoham et al., Intracerebroventricular injection of streptozotocin causes neurotoxicity to myelin that contributes to spatial memory deficits in rats, Exp. Neurol. (2003) 184:1043-52. Images were obtained by bright field microscopy and quantitative assessments of appropriate markers were made by means of densitometric measurements with AnalySIS software.
Rectangular fields measuring 200 μm×100 μm were sampled from these areas in two sections containing the hippocampus from each rat. The percentage area in which nitrotyrosine immunoreactivity was seen was computed and averaged between the two sections.
Densitometic data were analyzed by univariate ANOVA followed by Duncan's post hoc test.

Assay [2] has as its system rats injected icv with STZ (spatial memory). The assay is described as follows: Place recognition test after icv STZ. The class given is in vivo, Sprague-Dawley rats. How it is done: Male Sprague-Dawley rats (63) weighing 320-340 g, aged 4 months, were anesthetized by an intraperitoneal injection of Equithesin 0.3 ml/kg. STZ (0.5 mg) dissolved in 2 μl artificial cerebrospinal fluid (CSF) was injected into each lateral ventricle of 45 rats. The stereotaxic co-ordinates for icv injection were: 0.9 mm posterior, 1.8 mm lateral and 3.8 mm ventral from the bregma level. Control rats (18) received a bilateral injection of 2 μl artificial CSF. STZ-injected rats (25) were given ladostigil (1 mg/kg of the hemitartrate salt/day) orally in a volume of (1 ml/kg) from one week before, until 1 or 8 weeks after icv STZ. The remaining 20 rats received 1 ml/kg water. The rats were housed two per cage with free access to food and water until the behavioral, enzymatic and cytochemical measurements were completed.
Episodic memory in the object recognition test was still intact 2 but not 4 weeks after a single icv STZ injection (Table 3). […] The object recognition test measured non-spatial working memory with characteristics of episodic memory that is primarily affected in senile dementia (Bartolini et al., Aniracetam restores object recognition impaired by age, scopolamine, and nucleus basalis lesions, Pharmacol. Biochem. Behav. (1996) 53:277-83). […] Two identical objects were placed in the arena and the time taken by the rats to explore each object during a period of 3 min was recorded. […]

Setting [3] is: STZ + ladostigil 1 mg/kg orally one week before and one week after icv STZ, mean of two sections per rat.
[4] abbreviates: STZ + ladostigil 1 mg/kg orally, n = 5.

SMILES strings stand for the structures. Values joined by “and” are separate entries in the source; they are usually repeats but may differ in a detail not shown here. Equal entries are not always repeated.

In the case of `C#CCN[C@@H]1CCc2ccc(OC(=O)N(C)CC)cc21` [ladostigil, R(+)-6-(N-methyl,N-ethyl-carbamoyloxy)-N′-propargyl-1-aminoindan], in assay [1] (setting [3]), the “Nitrotyrosine Immunoreactivity, Alveus (percentage area), individual rat” value is 4 and 9.5 and 7 and 9 and 15; the “Nitrotyrosine Immunoreactivity, Stratum oriens (percentage area), individual rat” value was 14.5 and 19 and 5.5 and 8.5 and 20.5; the “Nitrotyrosine Immunoreactivity, Stratum radiatum (percentage area), individual rat” value was 1.5 and 22 and 3 and 7.5 and 11.5. Also, in assay [1] (setting [4]), the “Nitrotyrosine Immunoreactivity, Alveus (percentage area), group Mean ± SEM” value is listed as 8.9 ± 1.8; the “Nitrotyrosine Immunoreactivity, Stratum oriens (percentage area), group Mean ± SEM” value was 13.6 ± 2.9; the “Nitrotyrosine Immunoreactivity, Stratum radiatum (percentage area), group Mean ± SEM” value worked out at 9.1 ± 3.7. In addition, the “Increase in nitrotyrosine immunoreactivity in astrocytes in three areas of the CA1 region of the hippocampus” value in assay [1] is “prevented the increase”. In assay [1] (listed as Ladostigil), the “Increase in nitrotyrosine immunoreactivity in astrocytes in three areas of the CA1 region of the hippocampus” value is given as “completely prevented the increase”. Besides, in assay [2] (STZ (4 weeks) + ladostigil 1 mg/kg chronic, mean ± s.e.m.), the “Discrimination index, Place” value was 0.211 ± 0.07. The “Discrimination in place recognition test” value in assay [2] (icv STZ with chronic ladostigil, significantly >0, P<0.05) is “significant discrimination index”.
